Reference: US9403944B2, “Antipathogenic guanidinium copolymer” (priority 2012, dated 2016)

Tests used:
[1] = test system: Klebsiella pneumoniae ATCC 4352; assay: Coated coupon surface antimicrobial test, Klebsiella pneumoniae; format: cell-based; conditions: Stainless Steel 2″ × 2″ coupons, tested by Applicant, challenged with 3.8 × 10^7 bacteria; copolymer 0.0299 g/m2, Aegis 2.36 g/m2
Experimental: (§1) The silylated copolymer of Example II hereinabove was dissolved in isopropanol (IPA) to give a 30% w/v (IPA) solution. This IPA solution was then diluted to a 0.1% w/v concentration with additional IPA solvent.
(§2) 2″×2″ test coupons of Formica and 316 Stainless Steel were first washed with soap and water then wiped with a 70 wt. % aqueous ethanol solution and dried. The copolymer 2600 solution was applied via misting onto the coupon surfaces using a Preval sprayer. The surfaces of the coupons were sprayed until completely covered by the copolymer solution and then dried horizontally for >3 hr. at room temperature. Control coupons were sprayed with 30 wt. % aqueous IPA solution followed by drying under identical conditions. The final areal concentration of the dried copolymer on the test coupon surface was 0.0299 g/m2. All coupons were then irradiated with a C wavelength germicidal Ultraviolet Lamp (UVC) situated within a biosafety cabinet. […]
Antimicrobial; testing was performed by Applicant and independently by Professor. Charles Gerba, Ph.D. As a control, Applicant also determined the antimicrobial properties of a material sold in commerce by Aegis under the tradename AEM 5772-5. […]

[2] = test system: Staphylococcus aureus ATCC 6538; assay: Coated coupon surface antimicrobial test, Staphylococcus aureus; format: cell-based; conditions: Stainless Steel 2″ × 2″ coupons, tested by Applicant, challenged with 1.1 × 10^7 bacteria; copolymer 0.0299 g/m2, Aegis 2.36 g/m2
Experimental: as §1, §2
Antimicrobial; testing was performed by Applicant and independently by Professor. Charles Gerba, Ph.D. As a control, Applicant also determined the antimicrobial properties of a material sold in commerce by Aegis under the tradename AEM 5772-5.

CCCCCCCCCCCCCCCCCC[N+](C)(C)CCC[Si](O)(O)O.[Cl-] [Aegis Quaternary Ammonium Silane, 3-(trihydroxysilyl) propyldimethyloctadecyl ammonium chloride]
Ave. Log10 Reduction ± SD v. control 12 min exposure [1]: 1.15 ± 0.26 log10
Ave. Log10 Reduction ± SD v. control 10 min exposure [2]: 0.00 log10
